From patent US5464829A, “Cephalosporin derivatives” (Meiji Seika Kaisha Ltd., priority 1992, dated 1995)
Values after ≈ are worked out from the molar mass of the structure shown.

Experiments:
Test in all cases: Minimum inhibitory concentration (MIC), serial dilution technique
Assay type in all cases: cell-based
C. freundii GN346/16 = settings: Citrobacter freundii, 10^6 CFU/ml, 35° C., 18 to 20 hours
Procedure: (§1) Antibacterial activities of the following typical compounds A through E of the present invention represented by formula (I) upon various bacteria were determined by measuring the minimum inhibitory concentrations (MIC) in accordance with the known serial dilution technique. MIC was measured by inoculating 10^6 CFU/ml of each test strain on a Sensitivity Plate Medium N (Nissui Pharmaceutical Co., Ltd.), incubating the plates at 35° C. for 18 to 20 hours and then evaluating the results.

E. cloacae G-0008 = settings: Enterobacter cloacae, G0008, 10^6 CFU/ml, 35° C., 18 to 20 hours
Procedure: as §1

E. coli NIHJ JC-2 = settings: Escherichia coli, NIHJJC2, 10^6 CFU/ml, 35° C., 18 to 20 hours
Procedure: as §1

E. hirae ATCC8043 = settings: Enterococcus hirae, 10^6 CFU/ml, 35° C., 18 to 20 hours
Procedure: as §1

K. pneumoniae PCI602 = settings: Klebsiella pneumoniae, 10^6 CFU/ml, 35° C., 18 to 20 hours
Procedure: as §1

M. morganii 1510/S-1 = settings: Morganella morganii, 1510/S1, 10^6 CFU/ml, 35° C., 18 to 20 hours
Procedure: as §1

P. aeruginosa E-2 = settings: Pseudomonas aeruginosa, E2, 10^6 CFU/ml, 35° C., 18 to 20 hours
Procedure: as §1

P. vulgaris GN76 = settings: Proteus vulgaris, 10^6 CFU/ml, 35° C., 18 to 20 hours
Procedure: as §1

S. aureus 209P JC-1 = settings: Staphylococcus aureus, 10^6 CFU/ml, 35° C., 18 to 20 hours
Procedure: as §1

S. epidermidis ATCC14990 = settings: Staphylococcus epidermidis, 10^6 CFU/ml, 35° C., 18 to 20 hours
Procedure: as §1

S. marcescens No. 1 = settings: Serratia marcescens, 10^6 CFU/ml, 35° C., 18 to 20 hours
Procedure: as §1

Compound | MIC (C. freundii GN346/16) | MIC (E. cloacae G-0008) | MIC (E. coli NIHJ JC-2) | MIC (E. hirae ATCC8043) | MIC (K. pneumoniae PCI602) | MIC (M. morganii 1510/S-1) | MIC (P. aeruginosa E-2) | MIC (P. vulgaris GN76) | MIC (S. aureus 209P JC-1) | MIC (S. epidermidis ATCC14990) | MIC (S. marcescens No. 1)
C[n+]1ccc2sc(SCC3=C(C(=O)[O-])N4C(=O)C(NC(=O)/C(=N\OCC(=O)O)c5csc(N)n5)C4SC3)nc2c1 (stereo not shown) [C, 7-{(Z)-2-(2-aminothiazol-4-yl)-2-carboxymethoxyiminoacetamido}-3-(5-methylthiazolo[4,5-c]pyridinium-2-yl)thiomethyl-3-cephem-4-carboxylate] | 0.2 µg/mL (≈ 0.322 µM) | 0.05 µg/mL (≈ 0.0804 µM) | 0.05 µg/mL (≈ 0.0804 µM) | 100 µg/mL (≈ 161 µM) | < 0.025 µg/mL | < 0.025 µg/mL | 12.5 µg/mL (≈ 20.1 µM) | < 0.025 µg/mL | 3.13 µg/mL (≈ 5.03 µM) | 3.13 µg/mL (≈ 5.03 µM) | < 0.025 µg/mL
CO/N=C(\C(=O)NC1C(=O)N2C(C(=O)[O-])=C(CSc3nc4c(ccc[n+]4C)s3)CSC12)c1csc(N)n1 (stereo not shown) [B, 7-{(Z)-2-(2-aminothiazol-4-yl)-2-methoxyiminoacetamido}-3-(4-methylthiazolo[4,5-b]pyridinium-2-yl)thiomethyl-3-cephem-4-carboxylate] | 0.1 µg/mL (≈ 0.173 µM) | 0.2 µg/mL (≈ 0.346 µM) | 0.1 µg/mL (≈ 0.173 µM) | 50 µg/mL (≈ 86.6 µM) | 0.05 µg/mL (≈ 0.0866 µM) | 0.1 µg/mL (≈ 0.173 µM) | 25 µg/mL (≈ 43.3 µM) | 0.2 µg/mL (≈ 0.346 µM) | 0.2 µg/mL (≈ 0.346 µM) | 0.2 µg/mL (≈ 0.346 µM) | 0.2 µg/mL (≈ 0.346 µM)
CO/N=C(\C(=O)NC1C(=O)N2C(C(=O)[O-])=C(CSc3nc4c[n+](C)ccc4s3)CSC12)c1csc(N)n1 (stereo not shown) [A, 7-{(Z)-2-(2-aminothiazol-4-yl)-2-methoxyiminoacetamido}-3-(5-methylthiazolo[4,5-c]pyridinium-2-yl)thiomethyl-3-cephem-4-carboxylate] | 0.1 µg/mL (≈ 0.173 µM) | 0.05 µg/mL (≈ 0.0866 µM) | 0.05 µg/mL (≈ 0.0866 µM) | 1.56 µg/mL (≈ 2.7 µM) | 0.05 µg/mL (≈ 0.0866 µM) | < 0.025 µg/mL | 50 µg/mL (≈ 86.6 µM) | 0.39 µg/mL (≈ 0.675 µM) | 0.2 µg/mL (≈ 0.346 µM) | 0.2 µg/mL (≈ 0.346 µM) | 0.05 µg/mL (≈ 0.0866 µM)

Further lines, results first:

MIC (C. freundii GN346/16) | MIC (E. cloacae G-0008) | MIC (E. coli NIHJ JC-2) | MIC (E. hirae ATCC8043) | MIC (K. pneumoniae PCI602) | MIC (M. morganii 1510/S-1) | MIC (P. aeruginosa E-2) | MIC (P. vulgaris GN76) | MIC (S. aureus 209P JC-1) | MIC (S. epidermidis ATCC14990) | MIC (S. marcescens No. 1) | Compound
0.39 µg/mL (≈ 0.613 µM) | 0.2 µg/mL (≈ 0.315 µM) | 0.2 µg/mL (≈ 0.315 µM) | > 100 µg/mL | 0.05 µg/mL (≈ 0.0786 µM) | 0.05 µg/mL (≈ 0.0786 µM) | 1.56 µg/mL (≈ 2.45 µM) | < 0.025 µg/mL | 1.56 µg/mL (≈ 2.45 µM) | 1.56 µg/mL (≈ 2.45 µM) | 0.05 µg/mL (≈ 0.0786 µM) | C[C@H](O/N=C(\C(=O)NC1C(=O)N2C(C(=O)[O-])=C(CSc3nc4c[n+](C)ccc4s3)CSC12)c1csc(N)n1)C(=O)O (stereo partly drawn) [E, 7-[(Z)-2-(2-aminothiazol-4-yl)-2-{(S)-1-carboxyethoxyimino}acetamido]-3-(5-methylthiazolo[4,5-c]pyridinium-2-yl)thiomethyl-3-cephem-4-carboxylate]
0.39 µg/mL (≈ 0.6 µM) | 0.2 µg/mL (≈ 0.308 µM) | 0.2 µg/mL (≈ 0.308 µM) | > 100 µg/mL | 0.2 µg/mL (≈ 0.308 µM) | 0.05 µg/mL (≈ 0.077 µM) | 3.13 µg/mL (≈ 4.82 µM) | 0.1 µg/mL (≈ 0.154 µM) | 3.13 µg/mL (≈ 4.82 µM) | 3.13 µg/mL (≈ 4.82 µM) | 0.05 µg/mL (≈ 0.077 µM) | C[n+]1ccc2sc(SCC3=C(C(=O)[O-])N4C(=O)C(NC(=O)/C(=N\OC(C)(C)C(=O)O)c5csc(N)n5)C4SC3)nc2c1 (stereo not shown) [D, 7-{(Z)-2-(2-aminothiazol-4-yl)-2-(1-carboxy-1-methylethoxyimino)acetamido}-3-(5-methylthiazolo[4,5-c]pyridinium-2-yl)thiomethyl-3-cephem-4-carboxylate]
